Laboratory results published in ChEMBL document CHEMBL1201862, “PubChem BioAssay data set” (2004).
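Five compound concentrations were applied to cells in 96-well plates for 48 hours; endpoints were derived by simple linear interpolation of the resulting dose-response curve. The concentration for 50% growth inhibition is given as GI50.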 Activity calls are given as the source filed them. Cut-off read from the data, not from the text of the source: active = GI50 up to about 1.1 µM and inactive = higher.

Assays:
Test in all cases: growth of human tumour cells (NCI), 48 h
HCC 2998 = tested on: HCC 2998
SF-539 = tested on: SF-539
SNB-75 = tested on: SNB-75
NCI-H226 = tested on: NCI-H226
OVCAR-4 = tested on: OVCAR-4
OVCAR-8 = tested on: OVCAR-8
COLO 205 = tested on: COLO 205
A498 = tested on: A498
A549 = tested on: A549
HCT-116 = tested on: HCT-116
UACC-62 = tested on: UACC-62
K562 = tested on: K562
SW-620 = tested on: SW-620
HOP-62 = tested on: HOP-62
SK-MEL-5 = tested on: SK-MEL-5
SF-268 = tested on: SF-268
NCI-H23 = tested on: NCI-H23

Measured: GI50

COc1cc2c(cc1OC)[C@@H]([C@H](O)c1ccccc1)NCC2
inactive: HCC 2998 > 100 µM | SF-539 > 100 µM | SNB-75 55 µM | NCI-H226 > 100 µM | OVCAR-4 > 100 µM | OVCAR-8 > 100 µM | COLO 205 > 100 µM | A498 > 100 µM | A549 > 100 µM | HCT-116 > 100 µM | UACC-62 > 100 µM | K562 > 100 µM | SW-620 > 100 µM | HOP-62 > 100 µM | SK-MEL-5 > 100 µM | SF-268 > 100 µM | NCI-H23 > 100 µM

NC1=NN(c2ccccc2)C(=O)C1C(=O)CCC(=O)Nc1cccc(Cl)c1 (stereo unspecified)
inactive: HCC 2998 > 100 µM | SF-539 > 100 µM | SNB-75 > 100 µM | NCI-H226 > 100 µM | OVCAR-4 > 100 µM | OVCAR-8 > 100 µM | COLO 205 > 100 µM | A498 > 100 µM | A549 > 100 µM | HCT-116 > 100 µM | UACC-62 > 100 µM | K562 > 100 µM | SW-620 > 100 µM | HOP-62 > 100 µM | SK-MEL-5 > 100 µM | SF-268 > 100 µM | NCI-H23 > 100 µM

O=c1cc(-c2ccccc2)nc(/C=C(\O)c2ccncc2)n1-c1ccccc1
inactive: HCC 2998 > 100 µM | SF-539 > 100 µM | SNB-75 70.1 µM | NCI-H226 > 100 µM | OVCAR-4 > 100 µM | OVCAR-8 > 100 µM | COLO 205 > 100 µM | A498 > 100 µM | A549 > 100 µM | HCT-116 > 100 µM | UACC-62 > 100 µM | K562 > 100 µM | SW-620 > 100 µM | HOP-62 > 100 µM | SK-MEL-5 > 100 µM | SF-268 > 100 µM | NCI-H23 > 100 µM

COc1ccc2[nH]c3c4c(c5cc(C(C)(C)C)ccc5c3c2c1)C(=O)N(c1ccccc1)C4=O
inactive: HCC 2998 21.3 µM | SF-539 21.7 µM | SNB-75 57 µM | NCI-H226 > 100 µM | OVCAR-4 > 100 µM | OVCAR-8 44.7 µM | COLO 205 > 100 µM | A498 24.9 µM | A549 > 100 µM | HCT-116 > 100 µM | UACC-62 > 100 µM | K562 > 100 µM | SW-620 > 100 µM | HOP-62 > 100 µM | SK-MEL-5 > 100 µM | SF-268 > 100 µM | NCI-H23 > 100 µM

CC(C)[C@H](COC(C)(C)C)/N=C/N1CSc2ccccc21
inactive: HCC 2998 47.3 µM | SF-539 23.5 µM | SNB-75 30.3 µM | NCI-H226 48.3 µM | OVCAR-4 27.9 µM | OVCAR-8 35.2 µM | COLO 205 18.9 µM | A498 46.1 µM | A549 42 µM | HCT-116 27.6 µM | UACC-62 48.8 µM | K562 33.7 µM | SW-620 35.4 µM | HOP-62 41.2 µM | SK-MEL-5 25.1 µM | SF-268 59 µM | NCI-H23 36.5 µM

COC(c1ccccc1)C(c1ccccc1)N1CCOCC1 (stereo unspecified)
inactive: HCC 2998 > 100 µM | SF-539 > 100 µM | SNB-75 > 100 µM | NCI-H226 > 100 µM | OVCAR-4 > 100 µM | OVCAR-8 > 100 µM | COLO 205 > 100 µM | A498 > 100 µM | A549 > 100 µM | HCT-116 > 100 µM | UACC-62 > 100 µM | K562 > 100 µM | SW-620 > 100 µM | HOP-62 > 100 µM | SK-MEL-5 > 100 µM | SF-268 > 100 µM | NCI-H23 > 100 µM

Cc1ccccc1NC(=O)/C(=N\NC(N)=S)C(C#N)c1ccccc1 (stereo unspecified)
inactive: HCC 2998 > 100 µM | SF-539 > 100 µM | SNB-75 > 100 µM | NCI-H226 > 100 µM | OVCAR-4 > 100 µM | OVCAR-8 > 100 µM | COLO 205 > 100 µM | A498 > 100 µM | A549 > 100 µM | HCT-116 > 100 µM | UACC-62 > 100 µM | K562 > 100 µM | SW-620 > 100 µM | HOP-62 > 100 µM | SK-MEL-5 > 100 µM | SF-268 > 100 µM | NCI-H23 > 100 µM

CC12CCC(=O)C[C@H]1CCC(OC=O)C2Br (stereo partly specified)
inactive: HCC 2998 > 100 µM | SF-539 > 100 µM | SNB-75 > 100 µM | NCI-H226 > 100 µM | OVCAR-4 > 100 µM | OVCAR-8 > 100 µM | COLO 205 > 100 µM | A498 > 100 µM | A549 > 100 µM | HCT-116 > 100 µM | UACC-62 > 100 µM | K562 > 100 µM | SW-620 > 100 µM | HOP-62 > 100 µM | SK-MEL-5 > 100 µM | SF-268 > 100 µM | NCI-H23 > 100 µM
